Columns and labels:
[1] = Transport study across oral mucosa Transwell model, apical to basolateral, 240 min; details: human
Experimental: (§1) As soon as cells reached confluency, cultivation was switched from submerged to airlift and 1% Human Keratinocytes Growth Supplements (HKGS, Gibco, Thermofisher, Vienna, Austria, S0015) was added to the cultivation media on the basolateral compartment. Media were changed every 2–3 days until the day of experiment on day 29. Cells from passage 14–36 were used for experiments. Transepithelial electric resistance (TEER) was measured on day of experiment, as described in detail previously.
(§2) Solutions were diluted to 10 µM (carboxyfluorescein) or 100 µM in DMEM on day of experiments.
(§3) First, TEER was measured in cultivation media on the day of experiment. Afterwards, cells and blanks were washed twice with DMEM on the apical (300 µL) and basolateral (900 µL) compartments and selected cells and blanks were treated with DMEM with or without 100 µM probenecid or verapamil on the apical and basolateral side at 37 °C for 30 min. […] To cells which were pre-incubated with probenecid or verapamil, 100 µM probenecid or verapamil was applied apically as well. DMSO content was adapted for cells with no inhibitors, and DMSO and dd-H2O content was adjusted in the basolateral compartment as well in order to apply the same vehicle concentrations on the apical and basolateral compartment. […] Subsequently, duplicates of apical sample were collected, and samples were frozen at −80 °C until further analysis with High-Performance Liquid Chromatography (HPLC).
(§4) Peaks were quantified using the software Chromeleon Version 7.2.6, and corresponding mili absorbance unit × time [mAU × min] values were used for data analysis.
(§5) Mean values of relative fluorescence unit (RFU) or detected area [mAU × min] were used for calculation. For the first timepoint, the clearance [µL] for the detected area was calculated as shown in the formula below (1a), with Abasot1 as the measured area [mAU × min] at the first time point of the basolateral sample, Vbaso as the basolateral volume [µL] and Astock as the area measured for the applied stock solution. […] Clearance [µL] for carboxyfluorescein was calculated with the same formulas using RFU. (1a) Clearance=Abasot1×Vbaso/AStock (1b) Clearancetn=Abasotn×Vbaso/AStock−∑(Abasotn−1 ×3− Abasot1 ×3)
(§6) Cleared volume [µL] was calculated by plotting the sum of clearance at all time points over time [min]. The resulting slope PS [µL/min] was calculated inversely. For calculation of the PScell, the inverse PS blanks were subtracted, as shown below in Formula (2). (2) 1/PScell=1/PSall−1/PSblank
(§7) The final permeability coefficient is calculated by dividing the inverse PScell by the area of the ThinCerts (0.336 cm^2) and multiplying by a conversion factor to give the permeability coefficient as µm/min.

[2] = test system: oral mucosa epithelium in vitro model based on human cell line TR146; assay: as above; details: for Permeability coefficient without inflammation and inhibitor: Table S3; for increase of permeability coefficient with probenecid compared to no inhibitor / increase of permeability coefficient with verapamil compared to no inhibitor / cumulated concentration of NSAID in the basolateral compartment: 100 µM; for cumulated concentration of NSAID in the basolateral compartment: 4 h
Experimental: as §1, §2, §3, §4, §5, §6, §7

[3] = test system: MRP4 (ABCC4); details: cited from earlier work
[4] = CXlogD at pH 7.4 ref https://ebi.ac.uk (02.04.2024); cited from earlier work
[5] = Transport study across blank inserts without cells; details: mean ± SD
Experimental: as §3, §5, §6

[6] = test system: COX-2; parameters: method as in PMID 10866999; details: human cell lines ref 59; cited from earlier work
[7] = parameters: method as in PMID 15157608; details: cited from earlier work
[8] = test system: COX-2; parameters: method as in PMID 16678543; details: 48 h post-surgery, compared to the placebo group ref 62; cited from earlier work
[9] = test system: TR146 cell layers; assay: Carboxyfluorescein permeability assay (2 h) after 48 h inflammation treatment; format: in vitro ADME, human
Experimental: The resulting slope PS [µL/min] was calculated inversely. […] (2) 1/PScell=1/PSall−1/PSblank
ThinCerts® were seeded with cells as described above. Stock solutions of tumour necrosis factor α (TNF-α, Sigma-Alrich, H8916, 10 µg), Interleukin-1ß (IL-1ß, PeproTech, 200-01B, 2 µg) and Interferon-γ (IFN-γ, PeproTech, Vienna, Austria, 300-02, 20 µg) were prepared with Dulbecco’s Phosphate Buffered Saline (DPBS, Thermo-Fisher Scientific, Vienna, Austria, 14190094) containing 0.1% bovine serum albumin (BSA, Roth, Graz, Austria, 8076.2) at a concentration of 10 µg/mL and stored at −20 °C until usage. Three days before the experiments, cell layers and blanks were washed twice on the basolateral compartment with 900 µL cultivation media (DMEM supplemented with 10% Fetal Calf Serum and 1% Penicillin/Streptomycin) to remove anti-inflammatory hydrocortisone residues (a component of media supplement HKGS) and were further cultivated in cultivation media.
Prior to treating cells with prepared DMEM solutions, TEER was measured in cultivation media DMEM supplemented with 1% Penicillin/Streptomycin and 10% Fetal Calf Serum. Subsequently, cell layers and blanks were washed with DMEM (without supplements) twice on the apical and basolateral compartment, followed by TEER measurements in DMEM. Media of cells were replaced with previously prepared DMEM solutions. Control media was applied on the blanks. After 48 h treatment at 37 °C, 5% CO2 and 95% humidity TEER was measured. Subsequently, 10 µM carboxyfluorescein was added to the apical DMEM solutions and incubated in the incubator at 37 °C for 2 h. Media were immediately collected and measured for the RFU content using the EnSpire as described above. Afterwards, media were stored at −20 °C until further usage. Two cell-grown ThinCerts^TM of each treatment were pooled as one sample with 350 µL lysis buffer supplemented with 1% ß-mercaptoethanol and stored at −80 °C for RNA isolation.

[10] = test system: TR146 cell layers; details: human, not told, 4 h
[11] = test system: ECV304 cell monolayers; details: cited from earlier work
[12] = Celexocib study, w/o Inhibitor, mean ± SD
[13] = with 100 µM verapamil, mean ± SEM
[14] = without inhibitor, 100 µM apical (CF 10 µM), mean ± SEM
[15] = Celexocib study, Probenecid, mean ± SD
[16] = Celexocib study, Verapamil, mean ± SD
[17] = Diclofenac study, Probenecid, mean ± SD
[18] = Diclofenac study, Verapamil, mean ± SD
[19] = Diclofenac study, w/o Inhibitor, mean ± SD
[20] = Ibuprofen study, Probenecid, mean ± SD
[21] = Ibuprofen study, Verapamil, mean ± SD
[22] = Ibuprofen study, w/o Inhibitor, mean ± SD
[23] = Piroxicam study, Probenecid, mean ± SD
[24] = Piroxicam study, Verapamil, mean ± SD
[25] = Piroxicam study, w/o Inhibitor, mean ± SD
[26] = with 100 µM probenecid, mean ± SEM

Cc1ccc(-c2cc(C(F)(F)F)nn2-c2ccc(S(N)(=O)=O)cc2)cc1 [celecoxib]
Papp A→B at 240 min ([1]; PC (permeability of cell), Celexocib study, w/o Inhibitor, mean ± SD): 0.733 ×10⁻⁶ cm/s
Papp A→B at 240 min ([1]; with probenecid 100 µM, PC (permeability of cell), Celexocib study, Probenecid, mean ± SD): 10.1 ×10⁻⁶ cm/s
Papp A→B at 240 min ([1]; with probenecid 100 µM, PE (permeability of cell + blank), Celexocib study, Probenecid, mean ± SD): 2.72 ×10⁻⁶ cm/s
Papp A→B at 240 min, 100 µM ([1]; with probenecid 100 µM, permeability coefficient, with 100 µM probenecid, mean ± SEM): 21.2 ×10⁻⁶ cm/s
Papp A→B at 240 min ([1]; with verapamil 100 µM, PC (permeability of cell), Celexocib study, Verapamil, mean ± SD): 3.5 ×10⁻⁶ cm/s
PE (permeability of cell + blank) [2, 12]: 0.36 ± 0.15 µm/min
Permeability coefficient without inflammation and inhibitor ([2]; mean ± SD): 0.44 ± 0.19 µm/min
increase of permeability coefficient with probenecid compared to no inhibitor ([2]; human, 240 min): 13.63 fold
increase of permeability coefficient with verapamil compared to no inhibitor ([2]; human, 240 min): 4.72 fold
cumulated concentration of NSAID in the basolateral compartment ([2]; human): 0.0071 ± 0.00032 nmol/mm^2
permeability coefficient [2, 13]: 2.10 ± 0.92 µm/min
permeability coefficient [2, 14]: 0.44 ± 0.10 µm/min
inhibitory effect on MRP4 function [3]: weaker in comparison to ibuprofen
XlogD [4]: 4.01

CN1C(=O)CN=C(c2ccccc2)c2cc(Cl)ccc21 [diazepam]
PS all (cell + blank) [2, 15]: 0.14 ± 0.004 µL/min
PS cell [2, 15]: 0.46 ± 0.04 µL/min
PS all (cell + blank) [2, 16]: 0.09 ± 0.05 µL/min
PS cell [2, 16]: 0.41 ± 0.35 µL/min
PS all (cell + blank) [2, 12]: 0.11 ± 0.02 µL/min
PS cell [2, 12]: 0.38 ± 0.19 µL/min
PS all (cell + blank) [2, 17]: 0.12 ± 0.01 µL/min
PS cell [2, 17]: 0.57 ± 0.21 µL/min
PS all (cell + blank) [2, 18]: 0.1 ± 0.03 µL/min
PS cell [2, 18]: 0.68 ± 0.69 µL/min
PS all (cell + blank) [2, 19]: 0.11 ± 0.03 µL/min
PS cell [2, 19]: 0.44 ± 0.35 µL/min
PS all (cell + blank) [2, 20]: 0.09 ± 0.02 µL/min
PS cell [2, 20]: 0.29 ± 0.16 µL/min
PS all (cell + blank) [2, 21]: 0.08 ± 0.02 µL/min
PS cell [2, 21]: 0.39 ± 0.35 µL/min
PS all (cell + blank) [2, 22]: 0.12 ± 0.02 µL/min
PS cell [2, 22]: 0.31 ± 0.08 µL/min
PS all (cell + blank) [2, 23]: 0.1 ± 0.01 µL/min
PS cell [2, 23]: 0.32 ± 0.14 µL/min
PS all (cell + blank) [2, 24]: 0.05 ± 0.03 µL/min
PS cell [2, 24]: 0.24 ± 0.36 µL/min
PS all (cell + blank) [2, 25]: 0.12 ± 0.04 µL/min
PS cell [2, 25]: 0.45 ± 0.24 µL/min
PS blank ([5]; Diclofenac study, Probenecid): 0.15 ± 0.03 µL/min
PS blank ([5]; Diclofenac study, Verapamil): 0.13 ± 0.03 µL/min
PS blank ([5]; Diclofenac study, w/o Inhibitor): 0.17 ± 0.01 µL/min
PS blank ([5]; Ibuprofen study, Probenecid): 0.14 ± 0.01 µL/min
PS blank ([5]; Ibuprofen study, Verapamil): 0.12 ± 0.06 µL/min
PS blank ([5]; Ibuprofen study, w/o Inhibitor): 0.21 ± 0.03 µL/min
PS blank ([5]; Piroxicam study, Probenecid): 0.12 ± 0.03 µL/min
PS blank ([5]; Piroxicam study, Verapamil): 0.09 ± 0.02 µL/min
PS blank ([5]; Piroxicam study, w/o Inhibitor): 0.19 ± 0.02 µL/min
PS blank ([5]; study, Probenecid): 0.20 ± 0.004 µL/min
PS blank ([5]; study, Verapamil): 0.13 ± 0.05 µL/min
PS blank ([5]; study, w/o Inhibitor): 0.18 ± 0.003 µL/min

O=C(O)Cc1ccccc1Nc1c(Cl)cccc1Cl [diclofenac]
Papp A→B at 240 min ([1]; PC (permeability of cell)): 11.1 ×10⁻⁶ cm/s
Papp A→B at 240 min ([1]; PE (permeability of cell + blank)): 3.43 ×10⁻⁶ cm/s
PE (permeability of cell + blank) [2, 19]: 2.11 ± 0.22 µm/min
Permeability coefficient without inflammation and inhibitor ([2]; mean ± SD): 3.64 ± 0.84 µm/min
PE (permeability of cell + blank) ([2]; human, 240 min): 2.98 ± 1.37 µm/min
increase of permeability coefficient with probenecid compared to no inhibitor ([2]; human, 240 min): 1.83 fold
cumulated concentration of NSAID in the basolateral compartment ([2]; human): 0.043 ± 0.0046 nmol/mm^2
permeability coefficient [2, 26]: 6.66 ± 1.87 µm/min
permeability coefficient [2, 13]: 3.54 ± 0.38 µm/min
permeability coefficient [2, 14]: 3.64 ± 0.34 µm/min
XlogD [4]: 1.1

O=C(O)c1ccccc1Nc1cccc(C(F)(F)F)c1 [flufenamic acid]
COX-2 expression [6]: NF-κB-independent upregulation of COX-2

C[C@]12CCC(=O)C=C1CC[C@@H]1[C@@H]2[C@@H](O)C[C@@]2(C)[C@H]1CC[C@]2(O)C(=O)CO [hydrocortisone]
biological half-life [7]: 8–12 h

CN1C(C(=O)Nc2ccccn2)=C(O)c2ccccc2S1(=O)=O [piroxicam]
Papp A→B at 240 min ([1]; PC (permeability of cell), Piroxicam study, w/o Inhibitor, mean ± SD): 8.1 ×10⁻⁶ cm/s
Papp A→B at 240 min ([1]; with probenecid 100 µM, PC (permeability of cell), Piroxicam study, Probenecid, mean ± SD): 9.68 ×10⁻⁶ cm/s
Papp A→B at 240 min ([1]; with probenecid 100 µM, PE (permeability of cell + blank), Piroxicam study, Probenecid, mean ± SD): 4.52 ×10⁻⁶ cm/s
Papp A→B at 240 min ([1]; with verapamil 100 µM, PC (permeability of cell), Piroxicam study, Verapamil, mean ± SD): 10 ×10⁻⁶ cm/s
Papp A→B at 240 min ([1]; with verapamil 100 µM, PE (permeability of cell + blank), Piroxicam study, Verapamil, mean ± SD): 5.12 ×10⁻⁶ cm/s
PE (permeability of cell + blank) [2, 25]: 2.44 ± 0.76 µm/min
Permeability coefficient without inflammation and inhibitor ([2]; mean ± SD): 4.86 ± 2.41 µm/min
increase of permeability coefficient with probenecid compared to no inhibitor ([2]; human, 240 min): 1.19 fold
increase of permeability coefficient with verapamil compared to no inhibitor ([2]; human, 240 min): 1.23 fold
cumulated concentration of NSAID in the basolateral compartment ([2]; human): 0.055 ± 0.016 nmol/mm^2
permeability coefficient [2, 26]: 5.81 ± 0.61 µm/min
permeability coefficient [2, 13]: 6.00 ± 0.70 µm/min
permeability coefficient [2, 14]: 4.86 ± 0.84 µm/min
inhibitory effect on MRP4 function [3]: weaker in comparison to ibuprofen

CS(=O)(=O)c1ccc(C2=C(c3ccccc3)C(=O)OC2)cc1 [rofecoxib]
COX-2 expression in the oral mucosa [8]: induced COX-2 expression

carboxyfluorescein [CF]
permeability coefficient ([2]; human, 240 min): 4.63 ± 0.24 µm/min
permeability coefficient for CF ([9]; across cells treated with cytokines 48 h, two hours): 16.16 ± 13.05 µm/min
permeability coefficient for CF ([9]; across cells treated with cytokines with ibuprofen 48 h, two hours): 16.75 ± 9.76 µm/min
permeability coefficient for CF ([9]; across cells treated with ibuprofen 48 h, two hours): 12.83 ± 3.57 µm/min
permeability coefficient for CF ([9]; across control cells, two hours after 48 h): 12.41 ± 5.15 µm/min
permeability coefficient [10]: 14.26 ± 7.14 µm/min
permeability coefficient across ECV304 cell monolayers [11]: ~ 5 µm/min

Source: PMC11054638, “Transport of Non-Steroidal Anti-Inflammatory Drugs across an Oral Mucosa Epithelium In Vitro Model” (Pharmaceutics, 2024)
